# From US20130116241A1, “NOVEL INHIBITOR COMPOUNDS OF PHOSPHODIESTERASE TYPE 10A” (AbbVie Inc., priority 2011, published 2013)
# Experiments:
# [1] = tested on: rats; details: rat, in vivo; cited from earlier work
# [2] = tested on: rats; details: cited from earlier work
# [3] = tested on: rats; details: cited from earlier work; remark: listed apart in the source
# [4] = target: human PDE10A (UniProt Q9Y233); experiment: Measurement of PDE activity (recombinant enzyme, HTRF cAMP kit); assay type: biochemical; details: Table 1, substrate 20 nM for PDE10, 60 minutes at 29 C, read-out: IC50
# Summary of the method: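 HTRF detection of cAMP left after hydrolysis, expressed as percent of uninhibited control to derive IC50. Reaction: serially diluted inhibitor mixed with recombinant enzyme, started with 20 nM cAMP, 60 min at 29 °C in Tris-HCl pH 7.5 buffer containing MgCl2 and BSA.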
# human PDE10A, sequence (Q9Y233 290-1055 limits assumed): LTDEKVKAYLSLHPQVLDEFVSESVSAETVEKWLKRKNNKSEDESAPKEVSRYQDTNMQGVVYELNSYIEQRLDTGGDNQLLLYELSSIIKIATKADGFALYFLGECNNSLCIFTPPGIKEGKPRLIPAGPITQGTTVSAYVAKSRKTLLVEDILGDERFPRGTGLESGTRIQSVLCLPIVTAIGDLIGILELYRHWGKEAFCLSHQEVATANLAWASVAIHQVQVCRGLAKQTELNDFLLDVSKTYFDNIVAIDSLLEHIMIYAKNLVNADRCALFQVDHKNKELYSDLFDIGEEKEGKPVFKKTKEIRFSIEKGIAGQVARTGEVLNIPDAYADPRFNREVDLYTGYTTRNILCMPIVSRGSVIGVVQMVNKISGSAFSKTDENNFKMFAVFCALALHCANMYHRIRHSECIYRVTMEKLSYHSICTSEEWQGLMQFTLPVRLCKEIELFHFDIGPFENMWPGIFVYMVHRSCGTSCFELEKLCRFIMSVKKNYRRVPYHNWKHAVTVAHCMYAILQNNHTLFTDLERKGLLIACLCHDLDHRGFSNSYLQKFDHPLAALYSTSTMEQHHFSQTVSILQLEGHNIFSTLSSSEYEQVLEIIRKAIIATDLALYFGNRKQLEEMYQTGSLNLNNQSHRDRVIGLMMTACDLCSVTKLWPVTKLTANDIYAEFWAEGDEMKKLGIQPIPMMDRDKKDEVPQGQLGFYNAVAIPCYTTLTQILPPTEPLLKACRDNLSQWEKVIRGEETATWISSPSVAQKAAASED
Compound,IC50 [4] [nM],further results
"COc1ccc(Cc2nccc3cc(OC)c(OC)cc23)cc1OC [Papaverine, papaverine]",,reduction of amphetamine-induced hyperactivity [1]: insignificant; catalepsy on its own ([2]; compound alone): did not cause catalepsy on its own; cataleptic effect of the D2 receptor antagonist haloperidol ([2]; with haloperidol): potentiated the cataleptic effect; hyperactivity induced by PCP [3]: reduced hyperactivity
"O=c1c2c(NC3COC3)ccnc2cnn1CCc1ccc2ccccc2n1 [compound 406, 4-(oxetan-3-ylamino)-6-[2-(quinolin-2-yl)ethyl]pyrido[2,3-d]pyridazin-5(6H)-one]",< 100,
COc1ccc2nc(/C=C/n3ccc4scc(-c5ccncc5)c4c3=O)ccc2c1 [compound 410],< 100,
"O=c1c2c(-c3ccncc3)cccc2ccn1/C=C/c1ncc2ccccc2n1 [compound 411, 8-(pyridin-4-yl)-2-[(E)-2-(quinazolin-2-yl)ethenyl]isoquinolin-1(2H)-one]",100 to 200,

# The next lines start with results.
IC50 [4] [nM],Compound,further results
< 100,"O=c1c2c(-c3ccncc3)csc2ccn1/C=C/c1ccc2cc(Cl)ccc2n1 [compound 412, 5-[(E)-2-(6-chloroquinolin-2-yl)ethenyl]-3-(pyridin-4-yl)thieno[3,2-c]pyridin-4(5H)-one]",
< 100,"Cc1cc2ccccc2nc1/C=C/n1ccc2scc(-c3ccncc3)c2c1=O [compound 413, 5-[(E)-2-(3-methylquinolin-2-yl)ethenyl]-3-(pyridin-4-yl)thieno[3,2-c]pyridin-4(5H)-one]",
< 100,"O=c1c2c(-c3ccncc3)csc2ccn1/C=C/c1nc2ccccc2s1 [compound 415, 5-[(E)-2-(1,3-benzothiazol-2-yl)ethenyl]-3-(pyridin-4-yl)thieno[3,2-c]pyridin-4(5H)-one]",
< 100,"O=c1c2c(-c3ccncc3)csc2ccn1/C=C/c1ccc2ccccc2n1 [compound 416, 3-(pyridin-4-yl)-5-[(E)-2-(quinolin-2-yl)ethenyl]thieno[3,2-c]pyridin-4(5H)-one]",
